Measured values taken from patent US7759313B2, “Induction method for cell differentiation” (Obschetstvo S Ogranichennoi Otvetstvennostiyu …, priority 2002, dated 2010).
Values joined by “and” are separate entries in the source; they are usually repeats but may differ in a detail not shown here. Equal values may be shown once. Read-outs that look alike come from different tables or passages of the source.

What was measured:
[1] = system: human melanoma Mel-6; test: Inoculated human melanoma Mel-6 growth dynamics in nude mice; assay type: in vivo
Protocol: The study was conducted on 10-12 week old thymus free “nude” female Balb/C mice weighting 20-22 grams (breeding of the RCRC named after N. N. Blokhin of the RAMS). The human melanoma strain Mel-6 earlier obtained from primary clinical material was taken from the bank of tumor strains of the RCRC of the RAMS for transplantation to thymus free mice.
Dicarbamine at the single doses 1.5 mg/kg and 4.5 mg/kg was p.o. administered daily to two mice groups for 3 weeks from the moment of the tumor development (from day 15 to day 36 from the tumor transplantation).
Measurement of the tumor was done at days 18, 25, 33, 39, 46 and 53 from the transplantation. The effect of Dicarbamine was assessed on the basis of the tumor growth dynamics for 8 weeks in multiple measurements of tumor volumes “V” according to the formula: […]
wherein L is length in mm, s is width in mm; and h is height in mm.
The ratio between volumes of tumors Vt/Vt−1 expressed as a percentage was then calculated and statistically processed according to the Student's method to calculate statistically significant difference.

[2] = system: human melanoma; test: Number of cells with melanin in inoculated human melanoma (Goryaev's chamber); assay type: in vivo; conditions: 4.5 mg/kg p.o. daily for 3 weeks
Protocol: Mice with subcutaneously inoculated human melanoma as described in Example 1 were daily p.o. dosed with Dicarbamine at a higher single dose (4.5 mg/kg for 3 weeks from the moment of the tumor transplantation).
Animals were sacrificed three weeks after the tumor transplantation. By the time of sacrifice, the volume of the tumors was on average 150 mm^3. Following sacrifice, the tumors were excised from the mice and disintegrated with Versen solution, and the cell fraction containing cells with pigment was isolated. The number of cells with pigment was calculated in the Goryaev's chamber using light microscopy.

[3] = system: human M-5 melanoma cells; test: Initial rate of cell proliferation (IRCP), M-5 cells; assay type: cell-based
Protocol: The study was conducted on two continuous cell cultures growing in the form of a monolayer in a tissue culture (on murine B-16 melanoma cells and human M-5 melanoma cells). […] Dicarbamine (D) was transferred into stock solution (1.000 μM), sterilized through filters with 0.22 μm pore diameter and then diluted to concentrations 0.01 and 1.0 μM.
The effect of preparations on cells was assessed on the basis of initial rate of cell proliferation (IRCP). This index (IRCP), which is usually called colony rate growth, was determined by numbering the number of cells in micro colonies during the first days following affection in “test” (with preparations) and “control” (without preparations) dishes, by analyzing 50 colonies in each of them. Each “point” included […] three Petri dishes with growing cell colonies in adding specific concentrations of preparations under study. Growth rate of colonies (in %) was calculated according to the formula: […]
Cell numbers in micro colonies were calculated for every “point”. Toxicity of preparations in the selected range of concentrations was judged by cell survival, which was determined by the ratio between numbers of the colonies grown in “test” and “control” dishes.

[4] = system: M-6 melanoma; test: Morphologic parameters of M-6 melanoma in nude mice (light microscopy); assay type: in vivo, mouse (mouse (mouse (mouse (mouse (mouse (mouse (mouse (mouse (mouse (mouse (mouse (human melanoma xenograft) melanoma xenograft) melanoma xenograft) melanoma xenograft) melanoma xenograft) melanoma xenograft) melanoma xenograft) melanoma xenograft) melanoma xenograft) melanoma xenograft) melanoma xenograft) melanoma xenograft)
Protocol: The study was conducted on 10-12 week old thymus free (nude) female Balb/C mice weighing 20-22 grams (breeding of the Russian Cancer Research Center (RCRC) named after N. N. Blokhin of the Russian Academy of Medical Sciences (RAMS)). A human melanoma strain earlier obtained from primary clinical material was taken from the bank of tumor strains of the RCRC of the RAMS for transplantation to thymus free “nude” mice. Tumor was disintegrated by Versen solution with vital Trypan blue staining and inoculated subcutaneously to mice in the amount of 1.6 million cells per mouse.
Dicarbamine was administered to mice intragastrically using a metal probe daily at dose 1.0 mg/kg beginning 4 days before the tumor inoculation and thereafter for 10-11 days (administration course up to 15 days). The mice were sacrificed with ether anesthesia in 12, 24 and 48 hours after the last administration.
Four morphologic parameters, such as the number of cells with pigment and the number of cells with apoptosis signs (capability to differentiate), the number of mitoses (proliferation activity), and necrosis area, were determined to monitor the degree of differentiation and proliferation of M-6 melanoma cells in the groups of control animals and in the Dicarbamine groups. These parameters were determined dynamically and correlated with general morphologic picture of a tumor growth as an integral sign. For this purpose, the tumors were removed from the mice, placed into formalin, and histologically processed for light microscopy.

[5] = 1.0 mg/kg daily, 12 hours since withdrawal
[6] = 1.0 mg/kg daily, 24 hours since withdrawal
[7] = 1.0 mg/kg daily, 48 hours since withdrawal

O=C(O)CCCC(=O)NCCc1c[nH]cn1 [Dicarbamine]
V (tumor volume) M + m ([1]; 1.5 mg/kg p.o. daily days 15-36, 18 day after inoculation): 21.8 + 12.8
percent change in tumor volume Vt/Vt−1 ([1]; 1.5 mg/kg, 18 day): 100%
V (tumor volume) M + m ([1]; 1.5 mg/kg, 25 day): 77.5 + 46.4
percent change in tumor volume Vt/Vt−1 ([1]; 1.5 mg/kg, 25 day): 302.0 ± 186.0%
V (tumor volume) M + m ([1]; 1.5 mg/kg, 33 day): 342.0 + 142.0
percent change in tumor volume Vt/Vt−1 ([1]; 1.5 mg/kg, 33 day): 428.0 ± 313.1%
V (tumor volume) M + m ([1]; 1.5 mg/kg, 39 day): 435.0 + 187.0
percent change in tumor volume Vt/Vt−1 ([1]; 1.5 mg/kg, 39 day): 23.2 ± 22.1%
V (tumor volume) M + m ([1]; 1.5 mg/kg, 46 day): 662.0 + 417.0
percent change in tumor volume Vt/Vt−1 ([1]; 1.5 mg/kg, 46 day): 23.9 + 31.0%
V (tumor volume) M + m ([1]; 1.5 mg/kg, 53 day): 783.0 + 423.0
percent change in tumor volume Vt/Vt−1 ([1]; 1.5 mg/kg, 53 day): 18.6 + 54.0%
V (tumor volume) M + m ([1]; 4.5 mg/kg p.o. daily days 15-36, 18 day): 91.9 + 54.4
percent change in tumor volume Vt/Vt−1 ([1]; 4.5 mg/kg, 18 day): 100%
V (tumor volume) M + m ([1]; 4.5 mg/kg, 25 day): 266.0 + 198.0
percent change in tumor volume Vt/Vt−1 ([1]; 4.5 mg/kg, 25 day): 166.0±93.0%
V (tumor volume) M + m ([1]; 4.5 mg/kg, 33 day): 852.0 + 495.0
percent change in tumor volume Vt/Vt−1 ([1]; 4.5 mg/kg, 33 day): 276.0 ± 104.0%
V (tumor volume) M + m ([1]; 4.5 mg/kg, 39 day): 1129.0 + 600.0
percent change in tumor volume Vt/Vt−1 ([1]; 4.5 mg/kg, 39 day): 39.8 ± 27.3%
V (tumor volume) M + m ([1]; 4.5 mg/kg, 46 day): 1354.0 + 735.0
percent change in tumor volume Vt/Vt−1 ([1]; 4.5 mg/kg, 46 day): 19.6 ± 17.5%
V (tumor volume) M + m ([1]; 4.5 mg/kg, 53 day): 1550.0 + 780.0
percent change in tumor volume Vt/Vt−1 ([1]; 4.5 mg/kg, 53 day): 4.2 + 22.5%
delay in maximum tumor mass gain in comparison with the control ([1]; in vivo): 7 days
increase of number of cells synthesizing melanin vs control [2]: 3 fold
Number of cells with melanin ([2]; individual tumors 1-7): 95 (2×) and 110 and 130 and 106 and 111 (2×)
Initial rate of cell proliferation (% cells/colony relative to the control) ([3]; D 0.01 μM, 48 hours): 82.4% and 84.2%
Initial rate of cell proliferation ([3]; D 0.01 μM, 72 hours): 73.6%
Initial rate of cell proliferation ([3]; D 0.01 μM, 96 hours): 70.2%
Initial rate of cell proliferation ([3]; D 1.0 μM, 48 hours): 69.0%
Initial rate of cell proliferation ([3]; D 1.0 μM, 72 hours): 50.0%
Initial rate of cell proliferation ([3]; D 1.0 μM, 96 hours): 49.1%
Initial rate of cell proliferation ([3]; IN 7.0 IU/ml + D 0.01 μM, 48 hours): 79.1%
Initial rate of cell proliferation ([3]; IN 7.0 IU/ml + D 0.01 μM, 72 hours): 49.1%
Initial rate of cell proliferation ([3]; IN 7.0 IU/ml + D 0.01 μM, 96 hours): 46.9%
Initial rate of cell proliferation ([3]; IN 7.0 IU/ml + D 1.0 μM, 48 hours): 54.7%
Initial rate of cell proliferation ([3]; IN 7.0 IU/ml + D 1.0 μM, 72 hours): 36.9%
Initial rate of cell proliferation ([3]; IN 7.0 IU/ml + D 1.0 μM, 96 hours): 33.3%
Initial rate of cell proliferation ([3]; IN 70.0 IU/ml + D 0.01 μM, 48 hours): 40.5%
Initial rate of cell proliferation ([3]; IN 70.0 IU/ml + D 0.01 μM, 72 hours): 34.9%
Initial rate of cell proliferation ([3]; IN 70.0 IU/ml + D 0.01 μM, 96 hours): 31.0% and 31.7%
Initial rate of cell proliferation ([3]; IN 70.0 IU/ml + D 1.0 μM, 48 hours): 30.7%
Initial rate of cell proliferation ([3]; IN 70.0 IU/ml + D 1.0 μM, 72 hours): 24.0% and 24.5%
Initial rate of cell proliferation ([3]; IN 70.0 IU/ml + D 1.0 μM, 96 hours): 23.9%
toxicity according to the survival index ([3]; M-5 cells): does not show toxicity
Terms of death (100 + 15 mg/kg): no
Total leukocyte number (100 + 15 mg/kg, day 0): 11.50 ± 2.80 thousand in mm^3
Total leukocyte number (100 + 15 mg/kg, day 3): 4.04 ± 0.44 thousand in mm^3
Total leukocyte number (100 + 15 mg/kg, day 5): 10.40 ± 1.59 thousand in mm^3
Total leukocyte number (100 + 15 mg/kg, day 7): 14.80 ± 1.76 thousand in mm^3
Total leukocyte number (100 + 15 mg/kg, day 21): 11.80 ± 1.34 thousand in mm^3
Terms of death (200 + 30 mg/kg): 10
Total leukocyte number (200 + 30 mg/kg, day 3): 3.10 ± 0.70 thousand in mm^3
Total leukocyte number (200 + 30 mg/kg, day 5): 12.80 ± 1.37 thousand in mm^3
Total leukocyte number (200 + 30 mg/kg, day 7): 15.30 ± 1.26 thousand in mm^3
Total leukocyte number (200 + 30 mg/kg, day 21): 12.30 ± 0.89 thousand in mm^3
Total leukocyte number (cytostatic doses 200 + 30 mg/kg (Dicarbamine group: 0.5 mg/kg daily 20 days), day 0): 11.50 ± 2.80 thousand in mm^3
Apoptosis [4, 5]: 0.1–0.2%
Cells with pigment [4, 5]: 2–3%
Mitoses [4, 5]: 3–5%
Apoptosis [4, 6]: 0.2–0.3%
Cells with pigment [4, 6]: 2–4%
Mitoses [4, 6]: 3–5%
Necrosis area [4, 6]: 7–9%
Apoptosis [4, 7]: 0.2–0.3%
Cells with pigment [4, 7]: 3–5%
Mitoses [4, 7]: 3–5%
Necrosis area [4, 7]: 8–10%
Necrosis area ([4]; 1.0 mg/kg intragastrically daily up to 15 days, 12 hours since withdrawal): 6–7%
